Entries after “also recorded” stand apart in the source; their conditions may differ. Where two headings read alike, the source gives them in different places.
Experiments:
T-cells = tested on: T-cells; set-up: method as in PMID 12932045, PMID 16967053; settings: compared with cADPR; cited from earlier work
CD38 [1] = molecular target: T1, CD38 (Homo sapiens, UniProt P28907); settings: N1-IMP fragments and 8-NH2-N1-cIDPR from earlier work; read-out: IC50, inhibition of CD38-catalyzed cADPR hydrolysis; cited from earlier work
T1 construct: incubating 1 mM cADPR with 2 mg/mL of CD38 for 10 min
T1 sequence (P28907 1-300): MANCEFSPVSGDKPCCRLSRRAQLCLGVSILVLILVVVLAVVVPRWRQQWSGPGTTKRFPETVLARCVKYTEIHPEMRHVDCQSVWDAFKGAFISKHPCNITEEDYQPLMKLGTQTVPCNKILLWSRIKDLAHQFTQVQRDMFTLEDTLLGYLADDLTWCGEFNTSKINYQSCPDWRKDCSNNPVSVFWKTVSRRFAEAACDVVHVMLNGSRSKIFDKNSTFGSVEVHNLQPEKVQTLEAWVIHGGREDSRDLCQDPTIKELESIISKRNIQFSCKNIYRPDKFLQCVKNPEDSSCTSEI

[2] = molecular target: T2, shCD38 (CD38 catalytic domain) (Homo sapiens, UniProt P28907); experiment: Ligand hydrolysis by high concentrations of shCD38, monitored by RP-HPLC; type: biochemical; settings: 1 mM ligand, 4 mg/mL shCD38
T2 construct: high concentrations of CD38 catalytic domain (shCD38) present in crystallography media
T2 sequence (P28907 43-300 limits assumed): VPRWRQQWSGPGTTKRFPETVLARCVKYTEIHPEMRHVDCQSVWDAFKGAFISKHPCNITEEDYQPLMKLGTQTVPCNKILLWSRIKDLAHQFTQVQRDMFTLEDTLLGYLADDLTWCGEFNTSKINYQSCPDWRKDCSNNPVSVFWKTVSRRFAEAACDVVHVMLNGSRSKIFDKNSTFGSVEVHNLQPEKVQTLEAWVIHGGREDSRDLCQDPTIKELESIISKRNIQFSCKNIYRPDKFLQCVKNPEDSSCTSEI
Protocol: Indeed, 8-NH2-N9-butyl-cIDPR (6, Figure 2) was captured as the hydrolyzed product in the crystal structure with shCD38. […] Incubation of 11, 8-NH2-N1-IMP (1 mM final concentration) with 4 mg/mL shCD38 was monitored using RP-HPLC. The peak corresponding to 8-NH2-N1-IMP (RT = 10.5 min) reduced in intensity over time, alongside the appearance of a new peak (RT = 2.0 min) that was characteristic of an 8-amino substituted hypoxanthine analog (See Supplementary Information, Figure S1).
HPLC studies were carried out as previously described.[36] Briefly, the solution containing shCD38 was adjusted to the desired concentration using Tris-HCl buffer (20 mM, pH 8) and 50 μL was added to the inhibitor (0.05 μmole) in an Eppendorf tube at room temperature. At a given time point, a sample of 5 μL was removed and diluted with 95 μL MilliQ water. 10 μL Of this sample was injected directly into the analytical HPLC system (see General Experimental), eluting at 1 mL/min with an isocratic ion-pair buffer: 0.17% (m/v) cetrimide and 45% (v/v) phosphate buffer (pH 6.4) in MeOH.

CD38 [3] = molecular target: T1, CD38; experiment: Inhibition of CD38-catalyzed cADPR hydrolysis (fluorimetric cycling assay); type: biochemical; settings: for inhibitory activity (IC50) of CD38-mediated cADPR hydrolysis / IC50: 1 mM cADPR, 2 mg/mL CD38, 10 min, pH 4.5, IC50 values >1000 μM are approximate; for IC50: read-out: inhibitory activity (IC50) of CD38-mediated cADPR hydrolysis
Protocol: The inhibition of cADPR hydrolysis by various concentrations of inhibitor (0–1 mM) was determined by incubating 1 mM cADPR with 2 mg/mL of CD38 for 10 min at 20–24uC in 25 mM sodium acetate, pH 4.5. The reaction was stopped by the addition of 150 mM HCl. The precipitated protein was filtered, and the pH was neutralized with Tris base. After diluting the mixture 20-fold, the concentration of the unhydrolyzed cADPR present in the diluted reaction mixture was assayed by the fluorimetric cycling assay as previously described.[46]

[4] = Solubility in the assay medium; type: physicochemical; settings: CD38 assay medium

Structure (SMILES)	inhibitory activity on CD38-mediated cADPR hydrolysis, in words (CD38 [3])	IC50 (CD38 [3])	also measured
O=c1c2ncn3c2ncn1[C@@H]1O[C@H](COP(=O)(O)OP(=O)(O)OC[C@H]2O[C@@H]3[C@H](O)[C@@H]2O)[C@@H](O)[C@H]1O [Compound 2, cyclic inosine 5′-diphosphoribose]	–	–	Ca2+ release (T-cells): almost indistinguishably to that induced by cADPR
Nc1nc2c(=O)n3cnc2n1[C@@H]1O[C@H](COP(=O)(O)OP(=O)(O)OC[C@H]2O[C@@H]3[C@H](O)[C@@H]2O)[C@@H](O)[C@H]1O [Compound 4, 8-NH2-N1-cIDPR, reference compound]	–	–	IC50 (CD38 [1]): 56 µM
O=c1c2nc[nH]c2ncn1[C@@H]1O[C@H](COP(=O)(O)O)[C@@H](O)[C@H]1O [Compound 9, N1-Inosine 5′-monophosphate]	–	–	IC50 (CD38 [1]): 14 ± 5 µM
O=c1c2nc(Br)[nH]c2ncn1[C@@H]1O[C@H](COP(=O)(O)O)[C@@H](O)[C@H]1O [Compound 10, N1-(5′-O-Phosphoryl-β-D-ribofuranosyl)-8-bromohypoxanthine]	–	–	IC50 (CD38 [1]): 201 ± 41 µM
Nc1nc2c(=O)n([C@@H]3O[C@H](COP(=O)(O)O)[C@@H](O)[C@H]3O)cnc2[nH]1 [Compound 11, N1-(5′-O-Phosphoryl-β-D-ribofuranosyl)-8-aminohypoxanthine]	–	–	hydrolysis of ligand by shCD38 (RP-HPLC) [2]: hydrolyzed more rapidly than cIDPR (2), but more slowly than 8-NH2-N9-butyl-cIDPR (6); also recorded: hydrolyzed at the N1-ribosyl bond; hydrolysis of ligand by shCD38 (RP-HPLC) ([2]; listed as 8-NH2-N1-IMP): cleaved at high CD38 concentrations; IC50 (CD38 [1]): 7.6 ± 0.2 µM
O=c1c2nc(Br)n([C@@H]3O[C@H](CO)[C@@H](O)[C@H]3O)c2ncn1[C@@H]1O[C@H](CO)[C@@H](O)[C@H]1O [Compound 14, N1-(β-D-Ribofuranosyl)-8-bromoinosine]	no activity	–	inhibitory activity (IC50) of CD38-mediated cADPR hydrolysis (CD38 [3]): No activity
O=c1c2ncn([C@@H]3O[C@H](CO)[C@@H](O)[C@H]3O)c2ncn1[C@@H]1O[C@H](CO)[C@@H](O)[C@H]1O [Compound 15, N1-(β-D-Ribofuranosyl)-inosine]	low mM inhibitory activity	~7500 µM	–
[N-]=[N+]=Nc1nc2c(=O)n([C@@H]3O[C@H](CO)[C@@H](O)[C@H]3O)cnc2n1[C@@H]1O[C@H](CO)[C@@H](O)[C@H]1O [Compound 16, N1-(β-D-ribofuranosyl)-8-azidoinosine]	no activity	–	inhibitory activity (IC50) of CD38-mediated cADPR hydrolysis (CD38 [3]): No activity
Nc1nc2c(=O)n([C@@H]3O[C@H](CO)[C@@H](O)[C@H]3O)cnc2n1[C@@H]1O[C@H](CO)[C@@H](O)[C@H]1O [Compound 17, N1-(β-D-ribofuranosyl)-8-aminoinosine]	low mM inhibitory activity	~7600 µM	–
O=c1c2nc(Br)n(CCCCO)c2ncn1[C@@H]1O[C@H](CO)[C@@H](O)[C@H]1O [Compound 18, N1-(β-D-Ribofuranosyl)-N9-(4-hydroxybutyl)-8-bromohypoxanthine]	–	–	solubility in the assay medium [4]: insoluble in the assay medium
O=c1c2ncn(CCCCO)c2ncn1[C@@H]1O[C@H](CO)[C@@H](O)[C@H]1O [Compound 19, N1-(β-D-Ribofuranosyl)-N9-(4-hydroxybutyl)-hypoxanthine]	–	~2300 µM	–
[N-]=[N+]=Nc1nc2c(=O)n([C@@H]3O[C@H](CO)[C@@H](O)[C@H]3O)cnc2n1CCCCO [Compound 20, N1-(β-D-Ribofuranosyl)-N9-(4-hydroxybutyl)-8-azidohypoxanthine]	–	~9500 µM	–
Nc1nc2c(=O)n([C@@H]3O[C@H](CO)[C@@H](O)[C@H]3O)cnc2n1CCCCO [Compound 21, N1-(β-D-Ribofuranosyl)-N9-(4-hydroxybutyl)-8-aminohypoxanthine]	–	~3300 µM	–
O=c1c2ncn(CCCCO)c2ncn1[C@@H]1O[C@H](COP(=O)(O)O)[C@@H](O)[C@H]1O [Compound 23, N1-(5′-O-Phosphoryl-β-D-ribofuranosyl)-N9-(4-hydroxybutyl)hypoxanthine]	–	757 µM	–
[N-]=[N+]=Nc1nc2c(=O)n([C@@H]3O[C@H](COP(=O)(O)O)[C@@H](O)[C@H]3O)cnc2n1CCCCO [Compound 24, N1-(5′-O-Phosphoryl-β-D-ribofuranosyl)-N9-(4-hydroxybutyl)-8-azidohypoxanthine]	–	201 µM	–
Nc1nc2c(=O)n([C@@H]3O[C@H](COP(=O)(O)O)[C@@H](O)[C@H]3O)cnc2n1CCCCO [Compound 25, N1-(5′-O-Phosphoryl-β-D-ribofuranosyl)-N9-(4-hydroxybutyl)-8-aminohypoxanthine]	–	332 µM	–
O=c1c2nc(Br)[nH]c2ncn1[C@H]1O[C@@H](COP(=O)(O)O)[C@H](O)[C@@H]1O [Compound 26, N1-(5′-O-Phosphoryl-β-L-ribofuranosyl)-8-bromohypoxanthine]	–	230 ± 9 µM	–
O=c1c2nc[nH]c2ncn1[C@H]1O[C@@H](COP(=O)(O)O)[C@H](O)[C@@H]1O [Compound 27, N1-(5′-O-Phosphoryl-β-L-ribofuranosyl)-hypoxanthine]	–	460 µM	fold reduction in activity compared to parent / D-ribose N1-IMP counterpart (CD38 [3]; ratio of IC50 values): 30 fold
NS(=O)(=O)OC[C@H]1O[C@@H](n2cnc3[nH]c(Cl)nc3c2=O)[C@H](O)[C@@H]1O [Compound 28, N1-(5′-O-sulfonamide-β-D-ribofuranosyl)-8-chlorohypoxanthine]	neither of the two analogues (28, 29) showed any activity	–	inhibitory activity (IC50) of CD38-mediated cADPR hydrolysis (CD38 [3]): No activity
NS(=O)(=O)OC[C@H]1O[C@@H](n2cnc3[nH]cnc3c2=O)[C@H](O)[C@@H]1O [Compound 29, N1-(5′-O-sulfonamide-β-D-ribofuranosyl)-hypoxanthine]	neither of the two analogues (28, 29) showed any activity	–	inhibitory activity (IC50) of CD38-mediated cADPR hydrolysis (CD38 [3]): No activity

From paper PMC8658804, “Small Molecule CD38 Inhibitors: Synthesis of 8-Amino-N1-Inosine 5′-Monophosphate, Analogues and Early Structure-Activity Relationship” (Molecules (Basel, Switzerland), 2021)
